In patent US20230302082A1, “AGENT FOR REVERSIBLE OPENING OF NEURAL VASCULAR BARRIER” (YAMAGUCHI UNIVERSITY, priority 2020, published 2023):
Structures can show the parent of a compound that is named as a salt.

Experiments:
[1] = tested on: neural vascular barrier; test: Uptake of intravenously administered doxorubicin into cerebrum, liver and kidney with or without preadministration of CypA (doxorubicin fluorescence); type: in vivo, mouse
Method: Further, fluorescence emitted by doxorubicin was used to evaluate the uptake of doxorubicin into the cerebrum, the liver and the kidney. […] Fujifilm Wako Pure Chemical Corp.), an anticancer drug with low intracerebral penetration, was injected into caudal veins of mice with or without pre-injection of CypA (200 μg/kg). Pre-injection of CypA was performed intravenously 3 hours prior to the injection of doxorubicin. Mice were sacrificed 3 hours after the injection of doxorubicin hydrochloride, and the cerebrum, the liver, and the kidney were collected and embedded and frozen in OCT compound. Next, frozen sections of 30 μm thickness were prepared and observed under an LSM710 laser confocal microscope (Carl Zeiss AG).

[2] = tested on: mouse retinal vasculature; test: Permeability of the retinal vasculature (leakage of injected tracer dye, index of blood-retinal barrier function); type: in vivo; details: mouse retina, single intravenous injection 200 μg/kg
Method: (§1) Seven-week-old male C57B6/N mice (Japan SLC, Inc.) were given a single intravenous injection (200 μg/kg) of CypA. A change in the expression level of claudin-5 localized in the endothelial cell membranes of the retinal vasculature and permeability of the retinal vasculature were measured 3, 6, and 24 hours after the […] injection. The change in the expression of claudin-5 was measured by immunofluorescence staining using the rabbit polyclonal antibodies against claudin-5 in the same manner as in Example 1. The above-mentioned measurement of the permeability of the retinal vasculature was performed as follows.
First, 500 μL of PBS containing 100 μg/mL Hoechst dye H33258 (molecular weight 534 Da, Sigma-Aldrich) and 1 mg/mL tetramethylrhodamine-conjugated lysine-fixable dextran (molecular weight 10,000 Da, Thermo Fisher Scientific) was injected into the left ventricle as a tracer dye. After injection of the Hoechst dye, eyes were enucleated and immediately fixed with 4% paraformaldehyde (PFA) for 15 min at room temperature under light protection, thereby preparing retinal flat mounts. They were mounted in a fluorescent mounting medium, and leakage of the injected tracer was observed under a Zeiss LSM510 META laser confocal microscope (Carl Zeiss AG) to measure the permeability of the retinal vasculature (an index of blood-retinal barrier function). Experiments were performed independently 3 times or more.

[3] = tested on: bEnd.3 cell monolayer; test: TEER (index of vascular barrier function) of the bEnd.3 cell monolayer; type: cell-based, mouse
Method: (§2) In an in vitro system, mouse brain microvascular endothelial cell line bEnd.3 cells (obtained from the American Type Culture Collection) were grown as a monolayer at 37° C. under 5% CO^2 in Dulbecco's modified Eagle's medium containing 4500 mg/L glucose (Sigma-Aldrich) supplemented with 10% fetal bovine serum (FBS). CypA (200, 300 or 400 ng/ml: BioVendor R&D) was added to the culture supernatant of the monolayer-cultured bEnd.3 cells, followed by incubation for 3 hours. Subsequently, expression changes of claudin-5 in the bEnd.3 cells were observed by immunofluorescence staining, and claudin-5 signals on the cell membranes were quantified. Further, TEER, an index of vascular barrier function, was measured in the bEnd.3 cell monolayer.
The immunofluorescence staining, the quantification of the claudin-5 signals on the cell membranes, and the measurement of TEER in the bEnd.3 cell monolayer were performed in the same manner as in Example 1 except that CypA (300 ng/ml: BioVendor R&D) lacking PPlase activity was used as CypA.
In order to evaluate the opening effect of CypA on the neural vascular barrier over time, the same experiment as in Example 1 was performed while changing the treatment time of CypA. Specifically, CypA at a concentration of 300 ng/ml was applied to the cells, followed by incubation for 1, 3, 6, 9, and 12 hours. Then, the cells were subjected to the immunofluorescence staining, the quantification of the claudin-5 signals on the cell membranes, and the measurement of TEER in the bEnd.3 cell monolayer.

[4] = tested on: mouse brain microvascular endothelial cell line bEnd.3 cells; test: Immunofluorescence staining and quantification of claudin-5 signals on the cell membranes of monolayer-cultured bEnd.3 cells; type: cell-based
Method: as §2
The immunofluorescence staining was performed as follows. First, the cultured bEnd.3 cells were fixed with 100% methanol for 5 min at room temperature and incubated with 10% non-immune goat serum (Invitrogen) for 30 minutes to block non-specific binding of antibodies. Next, the cells were reacted with rabbit polyclonal antibodies against claudin-5 (1/25 dilution, Invitrogen) at 4° C. overnight. After washing with phosphate-buffered saline (PBS), the cells were incubated with Alexa Fluor 488 goat anti-rabbit IgG (1/200 dilution, Eugene) for 1 hour at room temperature under light protection. […] For a quantitative analysis, fluorescence intensities of claudin-5 on the plasma membranes were measured using an operation menu installed in LSMS Pascal6, 7.3. […] Fluorescence intensities were then quantified at points on the cell membranes that intersected the drawn straight lines. The mean value of the fluorescence intensities was calculated as an expression level of claudin-5 on the cell membranes of each monolayer at approximately 80 points. […]
The immunofluorescence staining, the quantification of the claudin-5 signals on the cell membranes, and the measurement of TEER in the bEnd.3 cell monolayer were performed in the same manner as in Example 1 except that CypA (300 ng/ml: BioVendor R&D) lacking PPlase activity was used as CypA. […]

[5] = tested on: mouse retinal vasculature; test: Claudin-5 expression in endothelial cell membranes of the retinal vasculature after intravenous CypA (immunofluorescence); type: in vivo; details: mouse retina, single intravenous injection 200 μg/kg
Text: Based on the results of Example 1, a change in the barrier function caused by CypA administration was examined in vivo using a mouse retinal tissue. Note that the retina is a tissue that is formed as an outgrowth of the central neural system during the process of ontogeny and is a part of the central neural system like the brain. Since the vascular system of the retina can be two-dimensionally observed and evaluated over the entire length in the longitudinal direction, the retina was used as an analysis material representing the central neural system in the present example.
as §1

Compound	fluorescent signals of doxorubicin in the liver and the kidney ([1]; mouse, doxorubicin hydrochloride 6.25 mg/kg i.v., 3 hours after injection, with or without pre-injection of CypA)	doxorubicin fluorescence signal in the cerebrum ([1]; mouse, doxorubicin hydrochloride 6.25 mg/kg i.v., 3 hours after injection, with preadministration of CypA 200 μg/kg i.v. 3 hours before)	doxorubicin fluorescence signal in the cerebrum ([1]; mouse, doxorubicin hydrochloride 6.25 mg/kg i.v., 3 hours after injection, without preadministration of CypA)	leakage of the injected tracer dye ([2]; 3 hours (FIG. 4b))	leakage of the injected tracer dye ([2]; 6 hours (FIG. 4b))	leakage of the injected tracer dye ([2]; 24 hours (FIG. 4b))	barrier function (TEER) ([3]; CypA 300 ng/ml, 3 hours after treatment (FIG. 3c))	barrier function (TEER) ([3]; CypA 300 ng/ml, 6 hours (FIG. 3c))	barrier function (TEER) ([3]; CypA 200, 300 or 400 ng/ml, 3 hours after treatment (FIG. 1c))	claudin-5 level on the cell membranes ([4]; CypA 300 ng/ml, 3 hours after treatment (FIG. 3a, 3b))	claudin-5 level on the cell membranes ([4]; CypA 300 ng/ml, 6 hours (FIG. 3a, 3b))	claudin-5 level on the cell membranes ([4]; CypA 200, 300 or 400 ng/ml, 3 hours after treatment (FIG. 1a, 1B))	effect of CypA preadministration on delivery of doxorubicin to the neural tissue parenchyma ([1]; mouse cerebrum, CypA 200 μg/kg i.v. 3 hours before doxorubicin hydrochloride 6.25 mg/kg i.v.)	effect of CypA pre-injection on intensities of doxorubicin fluorescence signals in the liver and the kidney ([1]; mouse, CypA 200 μg/kg i.v. 3 hours before doxorubicin hydrochloride 6.25 mg/kg i.v.)	expression level of claudin-5 in the cell membranes of the peripheral microvascular endothelial cells ([5]; 3 hours (FIG. 4a))	expression level of claudin-5 in the cell membranes of the peripheral microvascular endothelial cells ([5]; 24 hours (FIG. 4a))
COc1cccc2c1C(=O)c1c(O)c3c(c(O)c1C2=O)C[C@@](O)(C(=O)CO)C[C@@H]3O[C@H]1C[C@H](N)[C@H](O)[C@H](C)O1 [doxorubicin, Doxorubicin hydrochloride]	strong fluorescent signals of doxorubicin were detected	significant doxorubicin fluorescence signals were detected	no doxorubicin fluorescence signal was detected													
Cyclophilin A [CypA]				increased	decreased after 6 hours as compared with after 3 hours	returned to an undetectable physiological level	significantly decreased	recovered to the state prior to the CypA stimulation	significant reduction in the barrier function	decreased significantly	recovered to the level prior to the CypA stimulation	significantly reduced	allowed the intravenously administered doxorubicin to pass through the neural vascular barrier and reach the neural tissue parenchyma	not significantly affected	decrease	recovered to a physiological level
